Test results as given in patent US20140288039A1, “LI[…] CHAIN TE[…] FOR ORAL […]” (Lipocine Inc., priority 2009, published 2014).

Assays:
[1] = Solubility of testosterone esters in lipophilic additives (castor oil, oleic acid, glyceryl mono and di linoleate), HPLC; conditions: room temperature, equilibrium, compared to the Undecanoate (T11) ester, values only in FIGS. 1-3
[2] = background statement, cited from earlier work
[3] = single daily dose oral administration

CCCCCCCCCCCCCC(=O)O[C@H]1CC[C@H]2[C@@H]3CCC4=CC(=O)CC[C@]4(C)[C@H]3CC[C@]12C [Testosterone Tetradecoate (T14), Testosterone Tetradecoate]
solubility in lipophilic additives (in words) [1]: unexpectedly disproportionate lower solubility

CCCCCCCCCCCCC(=O)O[C@H]1CC[C@H]2[C@@H]3CCC4=CC(=O)CC[C@]4(C)[C@H]3CC[C@]12C [Testosterone Tridecoate (T13), Testosterone Tridecoate]
solubility in lipophilic additives (in words) [1]: unexpectedly disproportionate lower solubility

CCCCCCCCCCC(=O)O[C@H]1CC[C@H]2[C@@H]3CCC4=CC(=O)CC[C@]4(C)[C@H]3CC[C@]12C [Testosterone Undecanoate (T11), Testosterone Undecanoate]
percentage of patients in a group whose serum T remains in the hypogonadal range for a large proportion of the dosing period [2, 3]: > 60%
time serum T levels remain in the hypogonadal range (<300 ng/dL) in a 24-hour period [2, 3]: > 7 h

C[C@]12CCC(=O)C=C1CC[C@@H]1[C@@H]2CC[C@@]2(C)[C@H]1CC[C@]2(C)O [methyl testosterone]
reported adverse effects (in words) ([2]; oral use): liver damage including cholestasis, peliosis hepatitis, nodular regenerative hyperplasia, and primary hepatic tumors
